Assay results: patent publication US10350192B2, “Lactate dehydrogenase inhibitor and antiepileptic drug containing the same” (NATIONAL UNIVERSITY CORPORATION OKAYAMA UNIVERSITY, priority 2015, dated 2019)
Where “and” joins values, the source holds several entries; their conditions need not be identical. Equal entries are not always repeated. Entries after “also recorded” stand apart in the source; their conditions may differ.

How the values were obtained:
[1] = system: hippocampal sclerosis model mouse; assay: Epileptic spikes in hippocampal sclerosis model mouse (intrahippocampal kainate); format: in vivo
Experimental: Preparation and measurement of hippocampal sclerosis model mouse (FIGS. 1 to 3): The hippocampal sclerosis model mouse was prepared according to a previous literature (Non-Patent Document 15). Six to seven-week-old ICR mice were used for the experiment. Mice were fully anesthetized with a mixture of ketamine (100 mg/kg) and xylazine (20 mg/kg) and then set on a brain stereotaxic apparatus. Using a micro glass electrode and a Hamilton syringe from above the hippocampus of the head, a trace amount of kainate (0.8 nmol, 40 nL) for inducing epilepsy was injected into the dorsal hippocampus (1.6 mm behind the bregma, 1.6 mm laterally from the centerline, 1.4 mm deep from the brain surface), and then a metal electrode (a diameter of 200 μm) for epileptic electroencephalography was embedded near the kainic acid injection site. In addition, a small plastic U-shaped frame for head fixation required for in vivo electrical measurements was also attached to the head. After 2 weeks or more from surgery, epileptic spikes in the hippocampus were measured. The head was fixed via the U-shaped frame. Epileptic spikes were amplified, then measured via a band-pass filter (0.5-30 Hz) and taken into a computer using an AD converter. After measurement of the baseline electroencephalogram for 30 minutes, stiripentol (300 mg/kg), isosafrole (100-300 mg/kg), sodium oxamate (250-500 mg/kg), or physiological saline was intraperitoneally administered, and then further recording was conducted for 1 hour. Sodium oxamate was dissolved in water, and stiripentol and isosafrole were dissolved in sodium carboxymethyl cellulose (1%) and administered intraperitoneally. In data analysis, high-amplitude epilepsy spikes with an amplitude of 0.5 mV or more were counted 30 minutes before and after administration, respectively, and the efficacy was evaluated by normalization using the number of epileptic spikes before administration. In the observation of morphological changes due to hippocampal sclerosis, the brain was sliced to 300 μm thickness, fixed with 10% formalin, and stained with 0.05% cresylviolet.
Medial temporal lobe epilepsy with hippocampal sclerosis is a typical refractory epilepsy in adults (epilepsy for which existing drugs are not effective). First, according to a previous literature (Non-Patent Document 15), a trace amount of kainic acid was injected to a hippocampus to prepare hippocampal sclerosis model mouse (FIG. 1A). […] This is the same finding as the already reported hippocampal sclerosis model mouse (Non-Patent Document 15), which is similar to the symptom observed in human hippocampal sclerosis (Non-Patent Document 16). When recording on the hippocampus, spontaneous high-amplitude epileptic spikes were observed (FIG. 1C; arrowhead). […]

[2] = biological target: T1, human LDH-5 (Homo sapiens, UniProt P00338); assay: Lactate dehydrogenase activity by NADH light absorption at 340 nm, LDH-5; format: biochemical; conditions: 500 μM
Experimental: (§1) Evaluation of inhibition of lactate dehydrogenase by isosafrole (FIG. 4): The activity of lactate dehydrogenase was measured by a versatile method based on light absorption of NADH. Lactate dehydrogenase is an enzyme that interconverts pyruvate and lactate. At that time, NADH and NAD are also interconverted. For lactate dehydrogenase activity from lactate to pyruvate, lactate (20 mM), NAD (200 μM) and lactate dehydrogenase were added and the reaction rate of NADH produced was measured. On the other hand, for the lactate dehydrogenase activity from pyruvate to lactate, pyruvate (1.0 mM), NADH (200 μM) and lactate dehydrogenase were added and the reaction rate of decreasing NADH was measured. Both reactions were carried out at 37° C. in 100 mM sodium phosphate buffer (pH7.3). The light absorption of NADH at 340 nm was measured using an absorptiometer at 30 second intervals for 3.5 minutes to determine the reaction rate. Two kinds of human lactate dehydrogenase (human LDH-1 and LDH-5) were examined as lactate dehydrogenase. The amount of lactate dehydrogenase was set so that the maximum rates of the two lactate dehydrogenases were approximately the same: 0.0033 units/ml of LDH-1 and 0.01 units/ml of LDH-5 for the activity from lactate to pyruvate; and 0.0017 units/ml of LDH-1 and 0.0033 units/ml of LDH-5 for the activity from pyruvate to lactate. […]

[3] = biological target: T1, human LDH-5; assay: Lactate dehydrogenase inhibition rate, diaphorase/INT formazan coloring reaction (492 nm); format: biochemical
Experimental: Identification of a lactate dehydrogenase inhibitor having isosafrole as a scaffold (FIGS. 5 to 7): Since NADH absorbs light in the ultraviolet region (340 nm) and many compounds absorb the wavelength, NADH is not suitable for screening using a compound library. Therefore, in order to evaluate the lactate dehydrogenase activity from pyruvate to lactate, pyruvate (100 μM), NADH (100 μM) and lactate dehydrogenase (0.015 U/mL of human LDH-5) were firstly added, then allowed to react in a 100 mM sodium phosphate buffer (pH7.3) at 37° C. for 60 minutes (LDH enzyme reaction, 200 μL/well). At this stage, the background absorbance at 492 nm was first measured with a plate reader (absorbance before coloring reaction). Next, in order to measure the amount of NADH remaining in the LDH enzyme reaction, 100 μL/well of a coloring solution in which diaphorase (25 U/mL) and INT (5 mM) were dissolved was added, and then allowed to react in a 100 mM sodium phosphate buffer (pH7.3) at 37° C. for 10 minutes (coloring reaction). Since INT changes to INT formazan by diaphorase in the presence of NADH and develops color, the absorbance at 492 nm of INT formazan was measured with a plate reader (absorbance after coloring reaction).
Calculation of the inhibition rate (% Inhibition) is as follows. ΔA when the above reaction was carried out under the condition that lactate dehydrogenase was present was taken as “0% control value”, and ΔA when the above reaction was carried out under the condition that lactate dehydrogenase was absent was taken as “100% control value”. […] Then, the same reaction as the 0% control was carried out in the presence of a compound having isosafrole as a scaffold, and resultant ΔA was defined as “ΔA in the presence of the compound”. […] Specifically, inhibition rate is calculated as follows: Inhibition rate (%)=100×(ΔA in the presence of the compound−0% control value)/(100% control value−0% control value). Compounds showing inhibition rate of 100% (±25%) were described in FIGS. 6 and 7 as lactate dehydrogenase inhibitor. […]

[4] = biological target: human LDH-1 (Homo sapiens, UniProt P07195); assay: Lactate dehydrogenase activity by NADH light absorption at 340 nm, LDH-1; format: biochemical; conditions: 500 μM
Sequence of human LDH-1 (P07195 2-334 limits assumed): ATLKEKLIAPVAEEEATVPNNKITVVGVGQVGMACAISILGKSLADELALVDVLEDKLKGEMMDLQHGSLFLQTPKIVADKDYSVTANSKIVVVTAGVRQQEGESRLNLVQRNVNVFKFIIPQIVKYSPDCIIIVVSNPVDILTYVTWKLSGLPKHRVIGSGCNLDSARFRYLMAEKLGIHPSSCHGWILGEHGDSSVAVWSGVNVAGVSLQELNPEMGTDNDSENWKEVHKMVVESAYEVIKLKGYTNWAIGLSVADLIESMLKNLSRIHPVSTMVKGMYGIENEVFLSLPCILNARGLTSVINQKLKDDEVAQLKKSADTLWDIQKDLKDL
Experimental: as §1

[5] = system: pentylenetetrazole-induced acute epileptic seizures; conditions: rats, 300 mg/kg intraperitoneal; cited from earlier work
[6] = rats, 300 mg/kg intraperitoneal; cited from earlier work
[7] = 300 mg/kg intraperitoneal, high-amplitude spikes 30 min after vs before administration

Structure (SMILES)	antiepileptic effect on epileptic spikes ([1]; 500 mg/kg intraperitoneal)	antiepileptic effect on epileptic spikes [1, 7]	antiepileptic effect on epileptic spikes ([1]; 200-300 mg/kg intraperitoneal)	effect on lactate dehydrogenase activity from lactate to pyruvate ([2]; Lactate→Pyruvate)	effect on lactate dehydrogenase activity from pyruvate to lactate ([2]; Pyruvate→Lactate)	inhibition of lactate dehydrogenase (LDH-5) ([3]; 250 μM)	inhibition of lactate dehydrogenase (LDH-5) ([3]; 500 μM)	inhibition of lactate dehydrogenase (LDH-5) ([3]; 500 μM, listed as Isosafrole)	effect on lactate dehydrogenase activity from lactate to pyruvate ([4]; Lactate→Pyruvate)	effect on lactate dehydrogenase activity from pyruvate to lactate ([4]; Pyruvate→Lactate)	suppression of pentylenetetrazole-induced acute epileptic seizures [5]	plasma concentration [6]
NC(=O)C(=O)[O-].[Na+] [sodium oxamate]	weak anti-epileptic effect	–	–	–	–	–	–	–	–	–	–	–
C/C=C/c1ccc2c(c1)OCO2 [isosafrole, 5-(1-propenyl)-1,3-benzodioxole]	–	significantly suppressed; also recorded: remarkable inhibitory effect on epilepsy	remarkable antiepileptic effect	inhibitory effect	inhibitory effect was strong	not	inhibited	inhibits	inhibitory effect	inhibitory effect was strong	–	–
CC(C)(C)C(O)/C=C/c1ccc2c(c1)OCO2 (stereo not shown) [stiripentol, 4-dimethyl-1-[(3,4-methylenedioxy)-phenyl]-1-penten-3-ol]	–	scarcely inhibited; also recorded: little antiepileptic effect; also recorded: almost no inhibitory effect	–	–	–	–	–	–	–	–	suppressed	20-100 μg/ml and 85-427 μM
